{
  "source": "ChEMBL document CHEMBL6109146",
  "about": "“Discovery of New Pyrazolone Carbothioamide Derivatives as Potent Antifungal Agents for the Treatment of Candidiasis and Cryptococcosis” (J Med Chem, 2025)",
  "key": {"[1]": {"assay": "Cmax in male ICR mouse at 2 mg/kg, iv measured after 24 hrs by LC-MS/MS analysis", "format": "ADME, organism-based", "details": "in vivo"}, "Candida albicans [2]": {"system": "Candida albicans", "assay": "Antifungal activity against Candida albicans 103 assessed as inhibition of fungal growth incubated for 48 to 72 hrs by microplate reader analysis", "format": "functional, organism-based", "details": "time 48-72 hrs"}, "Candida albicans [3]": {"system": "Candida albicans", "assay": "Antifungal activity against Candida albicans 9296 assessed as inhibition of fungal growth incubated for 48 to 72 hrs by microplate reader analysis", "format": "functional, organism-based", "details": "time 48-72 hrs"}, "[Candida] auris": {"system": "[Candida] auris", "assay": "Antifungal activity against Candida auris 0030 assessed as inhibition of fungal growth incubated for 48 to 72 hrs by microplate reader analysis", "format": "functional, organism-based", "details": "Candidozyma auris, time 48-72 hrs"}, "[4]": {"assay": "Antifungal activity against Cryptococcus gattii 01063P assessed as inhibition of fungal growth incubated for 48 to 72 hrs by microplate reader analysis", "format": "functional", "details": "time 48-72 hrs"}, "Nakaseomyces glabratus [5]": {"system": "Nakaseomyces glabratus", "assay": "Fungistatic activity against Candida glabrata 0161 assessed as inhibition of fungal growth at 0.031 microg/ml incubated up to 72 hrs by microplate reader analysis", "format": "functional, organism-based", "details": "dose 0.031 µg/ml"}, "Cryptococcus neoformans [6]": {"system": "Cryptococcus neoformans", "assay": "Antifungal activity against Cryptococcus neoformans H99 assessed as inhibition of fungal growth at 4 microg/ml incubated for 48 hrs by spot-plating assay", "format": "functional, organism-based", "details": "dose 4.0 µg/ml"}, "Cryptococcus neoformans [7]": {"system": "Cryptococcus neoformans", "assay": "Antifungal activity against Cryptococcus neoformans H99 assessed as inhibition of fungal growth at 0.5 to 4 microg/ml incubated for 48 hrs by spot-plating assay", "format": "functional, organism-based", "details": "dose 0.5-4 µg/ml"}, "Nakaseomyces glabratus [8]": {"system": "Nakaseomyces glabratus", "assay": "Inhibition of biofilm formation in Candida glabrata 0161 at 16 to 32 microg/ml incubated for 24 hrs by XTT reagent based assay relative to control", "format": "functional", "details": "dose 16-32 µg/ml, at 16 to 32 µg/mL"}, "Cryptococcus neoformans [9]": {"system": "Cryptococcus neoformans", "assay": "Inhibition of urease production in Cryptococcus neoformans H99 at 0.125 microg/ml by photographic analysis relative to control", "format": "functional"}, "Cryptococcus neoformans [10]": {"system": "Cryptococcus neoformans", "assay": "Induction of morphological changes in Cryptococcus neoformans H99 assessed as mitochondrial lysis at 4 microg/ml incubated for 8 hrs by transmission electron microscopic analysis", "format": "functional, organism-based", "details": "dose 4.0 µg/ml"}, "Cryptococcus neoformans [11]": {"system": "Cryptococcus neoformans", "assay": "Induction of morphological changes in Cryptococcus neoformans H99 assessed as vacuole lysis at 4 microg/ml incubated for 8 hrs by transmission electron microscopic analysis", "format": "functional, organism-based", "details": "dose 4.0 µg/ml"}, "Cryptococcus neoformans [12]": {"system": "Cryptococcus neoformans", "assay": "Upregulation of GPX1 gene expression in Cryptococcus neoformans H99 at 4 microg/ml incubated for 8 hrs by qRT-PCR analysis", "format": "functional", "details": "dose 4.0 µg/ml"}, "Cryptococcus neoformans [13]": {"system": "Cryptococcus neoformans", "assay": "Upregulation of TRR1 gene expression in Cryptococcus neoformans H99 at 4 microg/ml incubated for 8 hrs by qRT-PCR analysis", "format": "functional", "details": "dose 4.0 µg/ml"}, "Nakaseomyces glabratus [14]": {"system": "Nakaseomyces glabratus", "assay": "Antifungal activity against Candida glabrata 0161 infected in candidiasis female ICR mouse model assessed as reduction in fungal burden in kidney at 20 mg/kg, ip pre-infected with fungi for 3 hrs followed by compound administration and measured after 5 days", "format": "functional", "details": "time 5 day"}, "Cryptococcus neoformans [15]": {"system": "Cryptococcus neoformans", "assay": "Antifungal activity against Cryptococcus neoformans H99 infected in cryptococcosis female ICR mouse model assessed as reduction in cysts formation in brain cortex at 5 mg/kg, ip pre-infected with fungi for 3 hrs followed by compound administration and measured after 5 days by H and E staining based analysis", "format": "functional, organism-based", "details": "time 5.0 day"}},
  "note": "Active and inactive are the calls of the source. The rule behind the calls is not given here.",
  "data": [
    {"smiles": "Nc1cc(=O)n(C(=S)Nc2ccc(C3CCCCC3)cc2)[nH]1", "values": [
      {"measurement": "Cmax", "setting": "[1]", "value": 2810, "unit": "ng/mL"},
      {"measurement": "Activity", "setting": "Candida albicans [2]", "value": "Active"},
      {"measurement": "Activity", "setting": "Candida albicans [3]", "value": "Active"},
      {"measurement": "Activity", "setting": "[Candida] auris", "value": "Active"},
      {"measurement": "MIC80", "setting": "[4]", "value": "1.2 10^-4 ug/ml"},
      {"measurement": "Activity", "setting": "Nakaseomyces glabratus [5]", "value": "Active; Significantly Better Activity Observed Than Fluconazole At 8 Microg/Ml"},
      {"measurement": "Activity", "setting": "Cryptococcus neoformans [6]", "value": "Moderate_effect"},
      {"measurement": "Activity", "setting": "Cryptococcus neoformans [7]", "value": "Active"},
      {"measurement": "inhibition (INH)", "setting": "Nakaseomyces glabratus [8]", "value": "~100", "unit": "%"},
      {"measurement": "inhibition at 0.125 µg/mL", "setting": "Cryptococcus neoformans [9]", "value": 100, "unit": "%"},
      {"measurement": "Activity", "setting": "Cryptococcus neoformans [10]", "value": "Active"},
      {"measurement": "Activity", "setting": "Cryptococcus neoformans [11]", "value": "Active"},
      {"measurement": "Activity", "setting": "Cryptococcus neoformans [12]", "value": "Active"},
      {"measurement": "Activity", "setting": "Cryptococcus neoformans [13]", "value": "Active"},
      {"measurement": "Activity", "setting": "Nakaseomyces glabratus [14]", "value": 1.2, "unit": "log10CFU/g"},
      {"measurement": "Activity", "setting": "Cryptococcus neoformans [15]", "value": "Active"}
    ]}
  ]
}
